In patent publication US20260042764A1, “COMPOSITIONS AND METHODS FOR INHIBITION OF KRAS” (TheRas, Inc., priority 2022, published 2026):

Key:
SW620 cells (KRAS G12V) = experiment: Cell-based pERK HTRF assay in SW620 cell (Biological Example 4)
Procedure, shortened: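 In SW620 cells grown in RPMI with 10% FBS, a 4 h compound treatment (0.25% DMSO, 9-point curve from 1 μM) preceded lysis. Phospho-ERK levels were then read by time-resolved FRET at 615 nm emission.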

[1] = target: T1, Avi-KRAS G12D (2-169) GTP/RAF1 RBD-3xFLAG (51-131) (Homo sapiens, UniProt P01116, G12D); experiment: Raf1-KRAS G12D-GTP disruption HTRF assay (Biological Example 3); format: binding
T1 construct: Avi-KRAS G12D (2-169)
T1 sequence (P01116 2-169 isoform P01116-2 G12D): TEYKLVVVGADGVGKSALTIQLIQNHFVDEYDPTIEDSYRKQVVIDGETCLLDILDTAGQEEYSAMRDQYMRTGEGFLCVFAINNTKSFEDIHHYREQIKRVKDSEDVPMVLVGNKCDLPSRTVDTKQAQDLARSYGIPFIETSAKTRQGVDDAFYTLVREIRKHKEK
Procedure, shortened: (§1)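 HTRF PPI read-out (ex 320 nm, em 615 nm) after 1 h RT incubation with shaking; data as % activity vs DMSO (100%), IC50 from curve fit. Complex 50 nM, RBD reagent 75 nM; compound 30-0.005 μM, 3-fold.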

GP2d cells (KRAS G12D) = experiment: Cell-based pERK HTRF assay in GP2d cell (Biological Example 2)
Procedure, shortened: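 Cells grown in DMEM with 10% FBS were exposed to compound for 60 min at 0.25% DMSO, using a 9-point half-log series starting at 1 μM or 100 nM. Lysates were then mixed with d2 and Eu cryptate antibodies for 4–24 h at room temperature, and pERK was read by HTRF.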

[2] = target: T2, Avi-KRAS G12C (2-169) GTP/RAF1 RBD-3xFLAG (51-131) (Homo sapiens, UniProt P01116, G12C); experiment: Raf1-KRAS G12C-GTP disruption HTRF assay (Biological Example 3); format: binding
T2 construct: Avi-KRAS G12C (2-169)
T2 sequence (P01116 2-169 isoform P01116-2 G12C): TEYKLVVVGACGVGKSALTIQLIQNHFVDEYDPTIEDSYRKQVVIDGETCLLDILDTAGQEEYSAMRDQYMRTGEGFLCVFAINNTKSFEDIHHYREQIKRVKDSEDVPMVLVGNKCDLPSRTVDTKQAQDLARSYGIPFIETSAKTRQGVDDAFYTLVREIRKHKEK
Procedure, shortened: as §1

[3] = target: T3, Avi-KRAS G12V (2-169) GTP/RAF1 RBD-3xFLAG (51-131) (Homo sapiens, UniProt P01116, G12V); experiment: Raf1-KRAS G12V-GTP disruption HTRF assay (Biological Example 3); format: binding
T3 construct: Avi-KRAS G12V (2-169)
T3 sequence (P01116 2-169 isoform P01116-2 G12V): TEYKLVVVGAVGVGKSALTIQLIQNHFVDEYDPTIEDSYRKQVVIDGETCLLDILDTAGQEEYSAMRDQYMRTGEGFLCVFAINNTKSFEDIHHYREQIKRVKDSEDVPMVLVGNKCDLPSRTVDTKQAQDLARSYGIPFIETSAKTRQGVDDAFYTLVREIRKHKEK
Procedure, shortened: as §1

[4] = target: T4, Avi-KRAS WT (2-169) GTP/RAF1 RBD-3xFLAG (51-131) (Homo sapiens, UniProt P01116); experiment: Raf1-KRAS WT-GTP disruption HTRF assay (Biological Example 3); format: binding
T4 construct: Avi-KRAS WT (2-169)
T4 sequence (P01116 2-169 isoform P01116-2): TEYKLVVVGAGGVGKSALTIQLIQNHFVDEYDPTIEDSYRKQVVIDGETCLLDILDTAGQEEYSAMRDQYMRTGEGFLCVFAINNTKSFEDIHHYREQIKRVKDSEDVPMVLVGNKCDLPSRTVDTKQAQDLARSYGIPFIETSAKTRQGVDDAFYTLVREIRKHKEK
Procedure, shortened: as §1

[5] = Homo sapiens, SW-620, SW620 (KRAS G12V) cells

Compound | IC50 (SW620 cells (KRAS G12V); [5]) | IC50 ([1]; KRAS G12D, GTP-loaded) | IC50 (GP2d cells (KRAS G12D); GP2d, GP2d (KRAS G12D) cells) | IC50 ([2]; KRAS G12C, GTP-loaded) | IC50 ([3]; KRAS G12V, GTP-loaded) | IC50 ([4]; KRAS WT, GTP-loaded) | IC50 (SW620 cells (KRAS G12V); SW620 (KRAS G12V) cells) | IC50 (GP2d cells (KRAS G12D); GP2d (KRAS G12D) cells) | IC50 (SW620 cells (KRAS G12V); Homo sapiens, SW-620, SW620 cells (KRAS G12V)) | IC50 ([1]; KRAS G12D-GTP / RAF1 RBD HTRF) | IC50 (GP2d cells (KRAS G12D); GP2d, GP2d cells (KRAS G12D)) | IC50 ([2]; KRAS G12C-GTP / RAF1 RBD HTRF) | IC50 ([3]; KRAS G12V-GTP / RAF1 RBD HTRF) | IC50 ([4]; KRAS WT-GTP / RAF1 RBD HTRF)
CCN(c1nc(OC[C@@]23CCCN2C[C@H](F)C3)nc2c(F)c(-c3ccc(F)c4sc(N)c(C#N)c34)c(C(F)(F)F)cc12)[C@H]1C[C@H](COC)N(C(=O)[C@@H]2CC2(F)F)C1 (atropisomer, axis not shown) [Compound 854] | < 100 nM | 100 to 1000 nM | < 100 nM | 100 to 1000 nM | 100 to 1000 nM | 100 to 1000 nM |  |  |  |  |  |  |  | 
CCN(c1nc(OC[C@@]23CCCN2C[C@H](F)C3)nc2c(F)c(-c3ccc(F)c4sc(N)c(C#N)c34)c(C(F)(F)F)cc12)[C@H]1CCN(C(=O)[C@H]2CCO2)[C@H]1C (atropisomer, axis not shown) [Compound 868] | 100 to 1000 nM | 100 to 1000 nM | < 100 nM | 1000 to 10000 nM | 1000 to 10000 nM | 1000 to 10000 nM |  |  |  |  |  |  |  | 
CCN(c1nc(OCC23CCCN2CC(F)C3)nc2c(F)c(-c3ccc(F)c4sc(N)c(C#N)c34)c(C(F)(F)F)cc12)C1CCN(C(=O)c2cnc(C#N)s2)C1 (stereo not drawn) [Compound 960] |  | 100 to 1000 nM |  | 100 to 1000 nM | 100 to 1000 nM | 1000 to 10000 nM | < 100 nM | < 100 nM |  |  |  |  |  | 
CCN(c1nc(OC[C@@]23CCCN2C[C@H](F)C3)nc2c(F)c(-c3ccc(F)c4sc(N)c(C#N)c34)c(C(F)(F)F)cc12)[C@H]1CCN(C(=O)O[C@@H]2CO[C@H]3OCC[C@H]32)C1 (atropisomer, axis not shown) [Compound 834] | < 100 nM | ≤ 100 nM | < 100 nM | ≤ 100 nM | ≤ 100 nM | 100 to 1000 nM |  |  |  |  |  |  |  | 
CCN(c1nc(OC[C@@]23CCCN2C[C@H](F)C3)nc2c(F)c(-c3ccc(F)c4sc(N)c(C#N)c34)c(C(F)(F)F)cc12)[C@H]1CCN(C(=O)[C@H]2C[C@H](F)C2)C1 (atropisomer, axis not shown) [Compound 846] | < 100 nM | 100 to 1000 nM | < 100 nM | 100 to 1000 nM | 100 to 1000 nM | 100 to 1000 nM |  |  |  |  |  |  |  | 
CO[C@H](C)C(=O)N1CC[C@H](N(c2nc(OC[C@@]34CCCN3C[C@H](F)C4)nc3c(F)c(-c4ccc(F)c5sc(N)c(C#N)c45)c(C(F)(F)F)cc23)C2CC2)C1 (atropisomer, axis not shown) [Compound 826] | < 100 nM | 100 to 1000 nM | < 100 nM | 1000 to 10000 nM | 1000 to 10000 nM | 1000 to 10000 nM |  |  |  |  |  |  |  | 
CCN(c1nc(OC[C@@]23CCCN2C[C@H](F)C3)nc2c(F)c(-c3ccc(F)c4sc(N)c(C#N)c34)c(C(F)(F)F)cc12)[C@H]1CCN(C(=O)c2ncc(C#N)s2)C1 (atropisomer, axis not shown) [Compound 956] | < 100 nM | 100 to 1000 nM | < 100 nM | 100 to 1000 nM | 100 to 1000 nM | 1000 to 10000 nM |  |  |  |  |  |  |  | 
CCN(c1nc(OC[C@@H]2C[C@@H](OC)CN2C)nc2c(F)c(-c3ccc(F)c4sc(N)c(C#N)c34)c(C(F)(F)F)cc12)[C@H]1CCN(C(=O)OC)C1 [Compound 871] | < 100 nM | 100 to 1000 nM | < 100 nM | 1000 to 10000 nM | 1000 to 10000 nM | 1000 to 10000 nM |  |  |  |  |  |  |  | 
CN(c1nc(OC[C@@]23CCCN2C[C@H](F)C3)nc2c(F)c(-c3ccc(F)c4sc(N)c(C#N)c34)c(C(F)(F)F)cc12)[C@H]1CC(=O)N2CCC[C@@H]12 (atropisomer, axis not shown) [Compound 916] | < 100 nM | 100 to 1000 nM | < 100 nM | 100 to 1000 nM | 100 to 1000 nM | 100 to 1000 nM |  |  |  |  |  |  |  | 
CCN(c1nc(OC[C@@]23CCCN2C[C@H](F)C3)nc2c(F)c(-c3ccc(F)c4sc(N)c(C#N)c34)c(C(F)(F)F)cc12)[C@H]1CCN(C(=O)c2coc(C)n2)[C@@H]1C (atropisomer, axis not shown) [Compound 899] | < 100 nM | 100 to 1000 nM | < 100 nM | 100 to 1000 nM | 100 to 1000 nM | 100 to 1000 nM |  |  |  |  |  |  |  | 
CCN(c1nc(OCC23CCCN2CC(F)C3)nc2c(F)c(-c3ccc(F)c4sc(N)c(C#N)c34)c(C(F)(F)F)cc12)C1CCN(C(=O)c2nc(C)ns2)C1 (stereo not drawn) [Compound 932] | < 100 nM | 100 to 1000 nM | < 100 nM | 100 to 1000 nM | 1000 to 10000 nM | 1000 to 10000 nM |  |  |  |  |  |  |  | 
CN(Cc1ccnnc1)c1nc(OC[C@@]23CCCN2C[C@H](F)C3)nc2c(F)c(-c3ccc(F)c4sc(N)c(C#N)c34)c(C(F)(F)F)cc12 (atropisomer, axis not shown) [Compound 896] | < 100 nM | 100 to 1000 nM | < 100 nM | 1000 to 10000 nM | 1000 to 10000 nM | 1000 to 10000 nM |  |  |  |  |  |  |  | 
CN(Cc1cocn1)c1nc(OC[C@@]23CCCN2C[C@H](F)C3)nc2c(F)c(-c3ccc(F)c4sc(N)c(C#N)c34)c(C(F)(F)F)cc12 (atropisomer, axis not shown) [Compound 855] | < 100 nM | 100 to 1000 nM | < 100 nM | 100 to 1000 nM | 100 to 1000 nM | 100 to 1000 nM |  |  |  |  |  |  |  | 
CCN(c1nc(OC[C@@]23CCCN2C[C@H](F)C3)nc2c(F)c(-c3ccc(F)c4sc(N)c(C#N)c34)c(C(F)(F)F)cc12)[C@H]1CCN(C(=O)N2CC3C(C2)C3(C)C)C1 (stereo partly drawn) [Compound 817] | < 100 nM | 100 to 1000 nM | < 100 nM | 100 to 1000 nM | 100 to 1000 nM | 1000 to 10000 nM |  |  |  |  |  |  |  | 
CCN(c1nc(OC[C@]23CCCN2C[C@H](F)C3)nc2c(F)c(-c3ccc(F)c4sc(N)c(C#N)c34)c(C(F)(F)F)cc12)[C@H]1CCN(C(=O)OC)C1 (atropisomer, axis not shown) [Compound 955] |  | 1000 to 10000 nM |  | > 10000 nM | > 10000 nM | > 10000 nM | 100 to 1000 nM | < 100 nM |  |  |  |  |  | 
CCN(c1nc(OC[C@@]23CCCN2C[C@H](F)C3)nc2c(F)c(-c3ccc(F)c4sc(N)c(C#N)c34)c(C(F)(F)F)cc12)[C@H]1C[C@H](C)N(C(=O)C2C[C@@H]2F)C1 (stereo partly drawn) [Compound 886] | < 100 nM | 100 to 1000 nM | < 100 nM | ≤ 100 nM | ≤ 100 nM | 100 to 1000 nM |  |  |  |  |  |  |  | 
CN(c1nc(OC[C@@]23CCCN2C[C@H](F)C3)nc2c(F)c(-c3ccc(F)c4sc(N)c(C#N)c34)c(C(F)(F)F)cc12)[C@@H]1CCCc2ccncc21 (atropisomer, axis not shown) [Compound 972] |  |  |  |  |  |  |  |  | < 100 nM | 100 to 1000 nM | < 100 nM | 100 to 1000 nM | 100 to 1000 nM | 100 to 1000 nM
CCN(c1nc(OC[C@@]23CCCN2C[C@H](F)C3)nc2c(F)c(-c3ccc(F)c4sc(N)c(C#N)c34)c(C(F)(F)F)cc12)[C@H]1CCN(C(=O)[C@@H]2C[C@@H]2F)[C@@H]1C (atropisomer, axis not shown) [Compound 889] | < 100 nM | 100 to 1000 nM | < 100 nM | 100 to 1000 nM | 100 to 1000 nM | 100 to 1000 nM |  |  |  |  |  |  |  | 
CCN(c1nc(OC[C@@]23CCCN2C[C@H](F)C3)nc2c(F)c(-c3ccc(F)c4sc(N)c(C#N)c34)c(C(F)(F)F)cc12)[C@H]1CCN(C(=O)N2CC(F)C2)[C@H]1C (atropisomer, axis not shown) [Compound 818] | < 100 nM | 1000 to 10000 nM | < 100 nM | 1000 to 10000 nM | 1000 to 10000 nM | 1000 to 10000 nM |  |  |  |  |  |  |  | 
CCN(c1nc(OC[C@@]23CCCN2C[C@H](F)C3)nc2c(F)c(-c3ccc(F)c4sc(N)c(C#N)c34)c(C(F)(F)F)cc12)[C@@H]1CO[C@H]2OCC[C@H]21 (atropisomer, axis not shown) [Compound 966] | < 100 nM | 100 to 1000 nM | < 100 nM | 100 to 1000 nM | 100 to 1000 nM | 100 to 1000 nM |  |  |  |  |  |  |  | 
CCN(c1nc(OC[C@@]23CCCN2C[C@H](F)C3)nc2c(F)c(-c3ccc(F)c4sc(N)c(C#N)c34)c(C(F)(F)F)cc12)[C@H]1C[C@@H]2CCCC(=O)N2C1 (atropisomer, axis not shown) [Compound 663] | < 100 nM | 100 to 1000 nM | < 100 nM | 1000 to 10000 nM | 1000 to 10000 nM | 1000 to 10000 nM |  |  |  |  |  |  |  | 
